This is an account of results in patent publication EP3064205A1, “Therapeutic use of isomeric forms of 2-(4-chlorophenyl)quinolin-4-yl)(piperidin-2-yl)methanol” (Glionova AB, priority 2015, dated 2016).

“Also recorded” adds a separate entry of the source. Where two headings read alike, the source gives them in different places.

For data set [1], the system named is glioblastoma cell line U3013. As to the kind of experiment: ATP viability assay (CellTiter-Glo). To be noted: U3013, dose response, CellTiterGlo ATP quantification. It is filed as cell-based, human. The procedure:
(§1) The human melanoma cell line SK-MEL-28 is a well established reference cell line in melanoma research (Goodfellow M, et al. J. Natl. Cancer Inst. 59: 221-226, 1977). Cells were cultured in MEM supplemented with 10% FCS. Glioblastoma cell line (U3013) was generated directly from patient-derived tumors (Kitambi et al. Cell. 2014: 157(2):313-28) and grown in serum-free media supplemented with N2, B27, EGF, and FGF-2 (20 ng/ml) using previously described methodology (Pollard et al., 2009).
Culture plates were pre-coated with laminin (Sigma) for 3 hr at 10 ug/ml prior to use and confluent cells were split 1:3 to 1:5 using TrypLE Express (Invitrogen).
(§2) Viability assay was conducted in 96 well microtiter plates seeded with 3000 cells. Cell viability was measured using CellTiter-Glo assay (Promega), according to the manufacturer's instructions. Luminescence was measured using Victor3 FA (Perkin Elmer) microtiter plate reader. Total luminescence was normalized relative to negative control and curve fitting performed using GraphPad Prism (v6.02) software. IC50 was determined using Cell Viability assay, and data was illustrated using GraphPad Prism (version 6.02)

The next data set has as its system KPC cells. The data set is described as follows: Vacuolization, bright field microscopy. It is filed as cell-based, mouse. To be noted: 5µM (3.3 µM elsewhere in the source) or 10µM, 18h. The procedure: (§3) Cells were plated on glass slides and were treated with compound at the indicated concentrations for 18h before imaging. Digital images were taken using a Veleta camera (Olympus Soft Imaging Solutions).

Another data set concerns SK-Mel-28. The data set is described as follows: ATP viability assay (CellTiter-Glo). In kind it is cell-based. The following applies: Homo sapiens. The procedure:
as §1, §2
In general terms: In ATP-based viability assays light output follows the ATP content of the culture.

The test system of data set [2] is Panc-1 cells. As to the kind of experiment: Vacuolization, bright field microscopy. It is filed as cell-based, human. To be noted: Panc-1, 5µM or 10µM, 18h.
From the text: The following well-characterized human pancreatic ductal adenocarcinoma cell lines (ATCC) were used: HPAF II, BxPC-3, MIA-PaCa2 and Panc-1. These cell lines were generated from patient-derived tumors and are widely used model system to study pancreatic cancer (HPAF II: Kim YW, et al. Pancreas 4: 353-362, 1989; BxPC-3: Tan MH, et al. Cancer Invest. 4: 15-23, 1986; MIA-PaCa2: Yunis AA, et al. Int. J. Cancer 19: 128-135, 1977; Pacn-1: Lieber M, et al. Int. J. Cancer 15: 741-747, 1975).
as §3

The subject of data set [3] is SK-Mel-28 cells. As to the kind of experiment: Long term toxicity (viability assay up to 25 days). In kind it is cell-based, human. The method, then: as §2
(§4) SK-Mel-28 and Panc-1 cells were plated on 96 well plates. Three hours post-seeding, cells were treated with 10 µM, 1 µM, 0.1 µM and 0.01 µM of S2 or vehicle (DMSO). Viability assay was conducted after 24 h, 72 h, 5 days, 10 days, 15 days, 20 days and 25 days, as described above. Media was changed every two days. […] Cell viability at each concentration was quantified relative to DMSO control at any time point (each time point had its own control), and was presented as fraction of control. Each treatment and the adequate control and was performed in 3, 4 and 6 repeats. Error bars indicate standard error (SE).
as §4, with “Vacquionol-1 SR (S2)” for “S2”

Data set [4] deals with Panc-1 cells. The data set is described as follows: Long term toxicity (viability assay up to 25 days). In kind it is cell-based, human. The method, then: as §2, §4
as §4, with “Vacquionol-1 SR (S2)” for “S2”

Data set [5] has as its system SK-Mel-28 cells. The data set is described as follows: Vacuolization, bright field microscopy. In kind it is cell-based, human. To be noted: SK-Mel-28, 5µM or 10µM, 18h. The procedure: as §1, §3
A short description of data set [6]: Pharmacokinetic evaluation in mice (plasma and brain). It is filed as in vivo, male NMRI mice. To be noted: for Kp / Tmax / Cmax: male, NMRI, mouse; for Kp: brain/plasma, single oral administration of 20 mg/kg. The method, then: Compounds S1 and S2 were formulated at 0.4 mg/mL in 7.5% NMP, 10% Kolliphor in 0.9% NaCl (for i.v. administration) and at 2.0 mg/mL in 0.1% Tween 80, 0.5% Na-CMC in water (for p.o. administration).
The pharmacokinetic properties of S1 and S2 were determined in male NMRI mice (Charles River, Germany) following single intravenous (i.v., tail vein, 2 mg/kg) or per oral (p.o, gavage, 20 mg/kg). Light isoflurane anaesthesia was used at i.v. administration, no anaesthesia was used at p.o. administration. Blood samples were kept on ice after sampling and centrigued at +4 °C, 1800 x g for 5 minutes to prepare plasma. Blood and homogenized brain samples were taken from animals at the following nominal time points: 15, 30, and 60 minutes, and 2, 4, 6, 8, 24, 48, 72 and 144 hours after dosing (n=3 samples/time-point). Blood sampling (400-600 microliters) was performed by orbital plexus collection under isoflurane anaesthesia into EDTA plasma tubes (BD Microtainer K2EDTA). Bioanalytical quantification of S1 and S2 was analysed in plasma and brain samples by a UPLC-MS/MS. Pharmacokinetics were calculated by non-compartmental analysis (NCA) from composite (mean) profiles using Phoenix WinNonlin Professional (v 6.3). Nominal sampling times and dose levels have been used for the NCA calculations. All animals dosed with S1 and S2 were systemically exposed to the test compound. The plasma and brain concentrations were detectable and analysed until 144 h.
Brain sampling was performed after the end of blood sampling at the specified time points following euthanization and skull extraction. Brains were weighed and placed in test tubes and placed on wet ice. 4 mL PBS (pH 7.4) per 1 g of brain tissue was added to the test tube and brains were then homogenized using an Ultra-Turrax T25 homogenisator (Setting 2, 9500 rpm, 10s). The homogenates were frozen at -20° C immediately after homogenization.

As usually defined, the IC50 is the concentration that inhibits the measured activity by half. What is called Tmax is the time from dosing to the highest level. A word on the Cmax: it is the maximum level reached in the sampled fluid or tissue. As for `O[C@@H](c1cc(-c2ccc(Cl)cc2)nc2ccccc12)[C@H]1CCCCN1` [S2, (S)-(2-(4-chlorophenyl)quinolin-4-yl)((R)-piperidin-2-yl)methanol], the “in vitro cytotoxicity, comparison of isolated isomers” value (from here on “in vitro cytotoxicity, comparison”) in data set [1] is “S1 and S2 exhibit greater in vitro oncolytic potency than the corresponding S3 and S4 isomers; also recorded: S1 and S2 exhibit higher cytotoxicity on cancer cells than S3 and S4”. The vacuole formation result in the data set with KPC cells was “stimulate vacuole formation”; with KPC cells (listed as Vacquinol-1 SR (S2)) it was “stimulates vacuole formation”; in the data set on Panc-1 cells [2], “stimulate vacuole formation”; in the data set on Panc-1 cells [2] (listed as Vacquinol-1 SR (S2)), “stimulates vacuole formation”; with SK-Mel-28 cells [5] it was “stimulate vacuole formation”; in the data set on SK-Mel-28 cells [5] (listed as Vacquinol-1 SR (S2)), “stimulates vacuole formation”. For the same compound, the IC50 in the data set with SK-Mel-28 (SK-MEL-28, 24 h) was 3600 nM; in the data set on SK-Mel-28 (SK-MEL-28, 48 h) it was 2400 nM; in the data set with SK-Mel-28 (SK-MEL-28, 72 h), 2100 nM. For the same compound, the long term toxicity result in the data set with SK-Mel-28 cells [3] (SK-Mel-28, 10, 1, 0.1, 0.01 µM, up to 25 days) is given as “dose-dependent cytotoxic effect”; in the data set on Panc-1 cells [4] (Panc-1, 10, 1, 0.1, 0.01 µM, up to 25 days) it was “dose-dependent cytotoxic effect”. Also, the “long term toxicity, lower concentrations” value with SK-Mel-28 cells [3] (SK-Mel-28, long term exposure of lower concentrations) was “complete death of the cells”; in the data set with Panc-1 cells [4] (Panc-1, long term exposure, 1µM), “complete death”. For the same compound, the “Brain AUC last” value in data set [6] (brain, i.v., 2 mg/kg) amounted to 9050 ng·h/mL; in data set [6] (brain, p.o., 20 mg/kg), 157000 ng·h/mL. Moreover, the “Brain Cmax” value in data set [6] (brain, i.v., 2 mg/kg) was 777 ng/mL; in data set [6] (brain, p.o., 20 mg/kg) it was 1490 ng/mL. For the same compound, the “Brain tlast” value worked out at 72 h in data set [6] (brain, i.v., 2 mg/kg) and 144 h in data set [6] (brain, p.o., 20 mg/kg). Further, the Kp in data set [6] (po, 20 mg/kg, read-out: exposure ratio AUC(brain/plasma)) came to 0.9; in data set [6] (po, 20 mg/kg, read-out: exposure ratio Cmax(brain/plasma)) it was 0.7. Also, the time of peak concentration (Tmax) in data set [6] (iv, brain, i.v., 2 mg/kg, read-out: Brain tmax) was 1 h; in data set [6] (iv, plasma, i.v., 2 mg/kg, read-out: Plasma tmax), 0.5 h; in data set [6] (po, brain, p.o., 20 mg/kg, read-out: Brain tmax) it was 6 h; in data set [6] (po, plasma, p.o., 20 mg/kg, read-out: Plasma tmax) it was 8 h. Further, the Cmax in data set [6] (iv, plasma, 2 mg/kg) turned out to be 455 ng/mL; in data set [6] (po, plasma, 20 mg/kg) it was 2050 ng/mL. Also, the “Plasma AUC last” value in data set [6] (plasma, i.v., 2 mg/kg) is 14100 ng·h/mL; in data set [6] (plasma, p.o., 20 mg/kg) it was 183000 ng·h/mL. For the same compound, the “Plasma tlast” value in data set [6] (plasma, i.v., 2 mg/kg) is 72 h; in data set [6] (plasma, p.o., 20 mg/kg) it was 144 h.

As to `O[C@H](c1cc(-c2ccc(Cl)cc2)nc2ccccc12)[C@H]1CCCCN1` [S3, (R)-(2-(4-chlorophenyl)quinolin-4-yl)((R)-piperidin-2-yl)methanol], the “in vitro cytotoxicity, comparison” value in data set [1] is “S1 and S2 exhibit greater in vitro oncolytic potency than the corresponding S3 and S4 isomers; also recorded: S1 and S2 exhibit higher cytotoxicity on cancer cells than S3 and S4”.

In the case of `O[C@@H](c1cc(-c2ccc(Cl)cc2)nc2ccccc12)[C@@H]1CCCCN1` [S4, (S)-(2-(4-chlorophenyl)quinolin-4-yl)((S)-piperidin-2-yl)methanol], the “in vitro cytotoxicity, comparison” value in data set [1] was “S1 and S2 exhibit greater in vitro oncolytic potency than the corresponding S3 and S4 isomers; also recorded: S1 and S2 exhibit higher cytotoxicity on cancer cells than S3 and S4”.
